Drawing on article PMC7613998, “Development of selective inhibitors of phosphatidylinositol 3-kinase C2α” (Nature Chemical Biology, 2022), this text covers inhibition for two compounds.

What all share (test): biochemical
What all share (set-up): SelectScreen Z'-LYTE purified kinase panel, per cent inhibition, mean of two points
Common to all, as to details: (μM)=Km app

For one assay, the target named is T1, AURKA (Aurora A) (Homo sapiens, UniProt O14965).
T1 sequence (O14965 1-403): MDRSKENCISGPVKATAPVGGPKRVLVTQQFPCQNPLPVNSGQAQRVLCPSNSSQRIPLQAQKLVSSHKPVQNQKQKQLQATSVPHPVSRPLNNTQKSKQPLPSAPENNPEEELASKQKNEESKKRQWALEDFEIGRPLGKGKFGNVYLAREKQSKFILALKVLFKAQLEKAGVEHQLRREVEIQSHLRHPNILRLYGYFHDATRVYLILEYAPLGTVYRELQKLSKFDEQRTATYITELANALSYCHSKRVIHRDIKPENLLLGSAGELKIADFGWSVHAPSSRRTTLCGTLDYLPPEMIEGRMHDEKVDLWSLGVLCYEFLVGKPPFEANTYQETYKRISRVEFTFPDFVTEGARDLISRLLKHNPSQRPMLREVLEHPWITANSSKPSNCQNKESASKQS

Another assay has as its target T2, AXL (Homo sapiens, UniProt P30530).
T2 sequence (P30530 1-894): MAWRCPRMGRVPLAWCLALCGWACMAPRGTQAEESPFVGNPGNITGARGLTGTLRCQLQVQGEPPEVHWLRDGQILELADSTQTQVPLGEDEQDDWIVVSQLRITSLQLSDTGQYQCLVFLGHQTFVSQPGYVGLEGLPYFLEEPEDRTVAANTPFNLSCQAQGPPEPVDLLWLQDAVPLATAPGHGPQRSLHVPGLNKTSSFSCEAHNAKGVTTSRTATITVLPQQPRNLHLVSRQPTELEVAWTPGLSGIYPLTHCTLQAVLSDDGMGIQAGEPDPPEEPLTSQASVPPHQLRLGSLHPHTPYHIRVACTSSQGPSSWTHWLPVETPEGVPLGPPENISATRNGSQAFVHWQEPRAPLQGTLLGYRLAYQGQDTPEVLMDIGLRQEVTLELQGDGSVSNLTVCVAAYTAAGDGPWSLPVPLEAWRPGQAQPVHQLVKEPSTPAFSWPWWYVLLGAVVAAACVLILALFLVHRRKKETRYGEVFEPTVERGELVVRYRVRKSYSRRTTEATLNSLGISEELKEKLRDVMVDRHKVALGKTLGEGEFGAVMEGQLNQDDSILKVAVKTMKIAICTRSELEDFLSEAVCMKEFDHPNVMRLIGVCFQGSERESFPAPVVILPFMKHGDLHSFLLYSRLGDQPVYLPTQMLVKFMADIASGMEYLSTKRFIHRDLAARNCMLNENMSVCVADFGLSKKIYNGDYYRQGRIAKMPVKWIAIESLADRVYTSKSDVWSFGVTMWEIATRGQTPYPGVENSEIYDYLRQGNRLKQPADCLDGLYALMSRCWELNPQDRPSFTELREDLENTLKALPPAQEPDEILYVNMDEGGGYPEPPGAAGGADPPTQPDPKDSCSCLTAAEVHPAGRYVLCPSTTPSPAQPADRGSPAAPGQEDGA

A further assay deals with BTK (Homo sapiens, UniProt Q06187).
Chain of BTK (Q06187 whole entry): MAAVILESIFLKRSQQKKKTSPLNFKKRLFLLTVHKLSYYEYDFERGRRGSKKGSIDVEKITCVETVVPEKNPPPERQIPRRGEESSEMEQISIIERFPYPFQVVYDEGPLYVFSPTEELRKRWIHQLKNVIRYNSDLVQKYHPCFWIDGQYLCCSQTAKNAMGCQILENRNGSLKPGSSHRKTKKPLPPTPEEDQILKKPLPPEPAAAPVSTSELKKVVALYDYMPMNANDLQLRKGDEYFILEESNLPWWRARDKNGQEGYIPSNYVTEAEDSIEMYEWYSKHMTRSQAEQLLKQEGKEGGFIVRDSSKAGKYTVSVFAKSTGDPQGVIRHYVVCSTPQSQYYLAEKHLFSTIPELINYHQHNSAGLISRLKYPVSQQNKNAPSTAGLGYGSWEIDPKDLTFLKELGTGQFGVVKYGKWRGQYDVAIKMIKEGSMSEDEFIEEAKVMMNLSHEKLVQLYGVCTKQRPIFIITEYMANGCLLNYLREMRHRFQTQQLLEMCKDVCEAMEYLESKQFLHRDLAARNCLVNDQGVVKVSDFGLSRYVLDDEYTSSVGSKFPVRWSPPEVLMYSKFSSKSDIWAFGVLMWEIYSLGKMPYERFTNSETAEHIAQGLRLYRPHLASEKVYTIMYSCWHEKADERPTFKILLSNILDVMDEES
A further assay concerns the target T3, IRAK4 (Homo sapiens, UniProt Q9NWZ3).
T3 sequence (Q9NWZ3 1-460): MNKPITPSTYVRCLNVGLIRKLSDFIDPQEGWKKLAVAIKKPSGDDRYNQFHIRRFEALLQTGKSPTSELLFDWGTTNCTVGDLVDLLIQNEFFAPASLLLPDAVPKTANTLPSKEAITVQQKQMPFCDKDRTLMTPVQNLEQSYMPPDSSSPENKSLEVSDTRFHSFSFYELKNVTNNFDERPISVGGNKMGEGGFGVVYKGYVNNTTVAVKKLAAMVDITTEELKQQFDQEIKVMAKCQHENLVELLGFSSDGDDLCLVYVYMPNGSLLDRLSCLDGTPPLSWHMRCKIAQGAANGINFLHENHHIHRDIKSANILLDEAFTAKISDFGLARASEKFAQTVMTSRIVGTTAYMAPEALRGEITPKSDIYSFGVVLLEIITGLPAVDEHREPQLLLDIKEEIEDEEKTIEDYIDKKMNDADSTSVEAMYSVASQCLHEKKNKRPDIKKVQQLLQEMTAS

The target of a further assay is T4, LYN A (Homo sapiens, UniProt P07948).
T4 construct: isoform A
T4 sequence (P07948 whole entry, canonical isoform): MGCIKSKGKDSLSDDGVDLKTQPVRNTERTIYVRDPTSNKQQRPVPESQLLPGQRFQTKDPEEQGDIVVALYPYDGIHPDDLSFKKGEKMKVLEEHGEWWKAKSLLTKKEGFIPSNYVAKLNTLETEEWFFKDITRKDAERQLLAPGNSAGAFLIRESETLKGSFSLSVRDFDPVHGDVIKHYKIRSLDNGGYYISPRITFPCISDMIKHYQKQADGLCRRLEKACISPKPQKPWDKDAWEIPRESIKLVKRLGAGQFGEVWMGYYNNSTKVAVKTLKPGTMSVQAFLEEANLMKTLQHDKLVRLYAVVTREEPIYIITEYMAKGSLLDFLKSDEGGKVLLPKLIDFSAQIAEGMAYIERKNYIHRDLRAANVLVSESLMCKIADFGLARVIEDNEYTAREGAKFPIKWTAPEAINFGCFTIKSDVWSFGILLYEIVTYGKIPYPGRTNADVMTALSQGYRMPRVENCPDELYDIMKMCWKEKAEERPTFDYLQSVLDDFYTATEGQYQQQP

Another assay addresses PAK1 (Homo sapiens, UniProt Q13153).

Chain of PAK1 (Q13153 whole entry): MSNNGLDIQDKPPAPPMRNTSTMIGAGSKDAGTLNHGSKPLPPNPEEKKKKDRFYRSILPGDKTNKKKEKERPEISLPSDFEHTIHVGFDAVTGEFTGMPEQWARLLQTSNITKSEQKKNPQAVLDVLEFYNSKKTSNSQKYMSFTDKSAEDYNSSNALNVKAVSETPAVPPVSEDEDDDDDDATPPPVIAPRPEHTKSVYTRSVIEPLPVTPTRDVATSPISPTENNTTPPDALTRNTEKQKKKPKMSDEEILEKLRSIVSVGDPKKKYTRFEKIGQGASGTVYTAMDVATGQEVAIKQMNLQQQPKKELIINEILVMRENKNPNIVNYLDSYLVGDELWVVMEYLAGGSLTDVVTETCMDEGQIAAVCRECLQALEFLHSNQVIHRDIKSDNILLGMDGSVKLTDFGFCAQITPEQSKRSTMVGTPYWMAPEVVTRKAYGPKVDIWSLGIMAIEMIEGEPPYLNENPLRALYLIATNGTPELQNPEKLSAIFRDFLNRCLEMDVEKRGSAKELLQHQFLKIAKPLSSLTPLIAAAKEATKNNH

With `O=C(CSc1nc2nccnc2c(=O)n1CCc1ccccc1)Nc1nccs1` [compound 1, PITCOIN1], the inhibition – broadly, the change of the read-out against control, counted positive when it falls – at 1 µM against AURKA (Aurora A) is 0.058%; against AXL, -3.88%; at BTK it was 6.72%; at IRAK4, 10.7%; against LYN A, 2.62%; at PAK1, -5.17%. For the same compound, the inhibition at 3 µM is 0.515% against AURKA (Aurora A); -5.8% on AXL; 3.08% against BTK; 2.87% against IRAK4; 1.7% on LYN A; -2.58% at PAK1. Further, the inhibition at 10 µM against AURKA (Aurora A) was -0.231%; against AXL, -2.92%; against BTK it was 2.73%; at IRAK4, 6.89%; on LYN A, 2.95%; on PAK1, -1.88%.

As for `CS(=O)(=O)Nc1cccc(-c2csc(NC(=O)CSc3nc4nccnc4c(=O)n3CCc3ccccc3)n2)c1` [compound 3, PITCOIN3], the inhibition at 1 µM at AURKA (Aurora A) was 5.01%; against AXL, -4.95%; against BTK, 3.1%; at IRAK4, 15.2%; against LYN A, 1.87%; at PAK1, 21.4%. The inhibition at 3 µM against AURKA (Aurora A) is 0.816%; against AXL, -1.87%; against BTK it was 6.59%; against IRAK4 it was 4.2%; on LYN A it was 2.86%; at PAK1 it was -0.318%. In addition, the inhibition at 10 µM at AURKA (Aurora A) was 0.802%; against AXL, -3.45%; on BTK, 3.91%; on IRAK4, 9.92%; against LYN A, 1.59%; at PAK1, 19.2%.
